Experimental data from EP4682145A1, “BENZOHETEROCYCLIC COMPOUND, AND PREPARATION METHOD THEREFOR AND USE THEREOF” (Cascade Pharmaceuticals, Inc., priority 2023, dated 2024).
pEC50: −log10 of the molar value.

What was measured:
human FFAR1 (GPR40) = biological target: T1, human FFAR1 (GPR40) (Homo sapiens, UniProt O14842); assay: NFAT-RE-based reporter gene activity assay (Dual-Glo luciferase) for GPR40 agonistic activity in co-transfected HEK293T cells; type: cell-based; conditions: 4-hour treatment; for Efficacy (%): class symbols
T1 construct: Flag; expressed in transfected cells; host or cells: HEK293T
T1 sequence (O14842 whole entry): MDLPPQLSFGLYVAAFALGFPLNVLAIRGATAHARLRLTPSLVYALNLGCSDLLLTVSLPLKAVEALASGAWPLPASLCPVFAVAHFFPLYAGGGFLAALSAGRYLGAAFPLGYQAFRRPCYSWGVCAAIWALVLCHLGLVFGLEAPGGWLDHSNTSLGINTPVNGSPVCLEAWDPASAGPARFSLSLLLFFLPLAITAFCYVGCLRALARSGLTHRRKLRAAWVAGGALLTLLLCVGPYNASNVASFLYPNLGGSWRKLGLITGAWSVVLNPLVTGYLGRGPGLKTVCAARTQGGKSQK
How it was run: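 Agonism read as NFAT-RE-driven firefly luciferase over Renilla control (Dual-Glo) after 4 h compound exposure, top concentration 1 µM, 10 half-log steps.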

[1] = Tissue distribution evaluation in ICR mice; type: in vivo; conditions: oral gavage 5 mg/kg, 1 hour after administration
Procedure: Experimental protocol: The tissue distribution characteristics of the compounds were evaluated in mice. 2 male ICR mice with similar body weights were selected, and the compound was administered via oral gavage at a dose of 5 mg/kg. The animals were sacrificed at 1 hour, and blood, liver, and heart were collected. After sample processing, the concentration of the compounds in each matrix was analyzed by LCMS/MS, and the average values of each group were calculated to evaluate the tissue/plasma ratio of the compounds.
Experimental animals: 2 healthy male ICR mice were purchased from Charles River.
Preparation of formulations: A certain amount of the compound was weighed and added to 2% DMSO + 15% Solutol + 83% distilled water to form a clear solution.
Dosage: ICR mice were fasted overnight and administered the compound via oral gavage at a dose of 5 mg/kg. The volume of oral gavage administration was 10 mL/kg. Uniform feeding was conducted 2 hours after administration.
Sample collection: Animals were sacrificed 1 hour after administration, and blood, liver, and heart tissues were collected. The blood was placed into commercially available tubes containing K2-EDTA. The blood samples were then centrifuged at 4°C and 4600 rpm for 5 minutes to obtain plasma samples. All plasma and tissue samples were rapidly frozen on dry ice and maintained at -70°C until LCMS/MS analysis was performed.
Sample preparation: 50 µL of the plasma sample was aspirated, precipitated with methanol, thoroughly mixed, and centrifuged at 4°C and 14000 rpm for 5 minutes. Then, 75 µL of the supernatant was mixed with 75 µL of methanol for LCMS/MS analysis. Tissue samples were homogenized using methanol. After homogenization, the mixture was centrifuged at 14,000 rpm for 5 minutes at 4°C. Subsequently, 75 µL of the supernatant was mixed with 75 µL of methanol for LCMS/MS analysis.

[2] = Pharmacokinetic evaluation in ICR mice (intravenous and gavage); type: in vivo
Procedure: The bioavailability and pharmacokinetic behavior of the compounds were evaluated in mice. 6 male ICR mice with similar body weights were selected, among which 3 mice were administered a single gavage dose of 10 mg/kg, and the other 3 mice were intravenously administered a single dose of 5 mg/kg. Blood samples were collected at 5 minutes (intravenous administration), 15 minutes, 30 minutes, 1 hour, 2 hours, 4 hours, and 7 hours after administration. The plasma samples were analyzed for concentration by LCMS/MS, and the pharmacokinetic parameters of the compounds were analyzed using the PKSolver free tool and non-compartmental analysis (NCA) software.
Experimental animals: Each compound test group included 6 healthy male ICR mice, weighing 18-25 g, purchased from Charles River, which were randomly divided into 2 groups with 3 mice each.
Preparation of formulations: A certain amount of the compound was weighed and added to 2% DMSO + 15% Solutol + 83% physiological saline to form a clear solution.
Dosage: ICR mice were fasted overnight and administered the compound at a dose of 10 mg/kg via gavage or 5 mg/kg via intravenous injection. The dosing volumes for gavage and intravenous administration were 10 mL/kg and 5 mL/kg, respectively. Uniform feeding was conducted 2 hours after administration.
Sample collection: Approximately 30 µL of blood was collected from the great saphenous vein at 5 minutes (intravenous administration), 15 minutes, 30 minutes, 1 hour, 2 hours, 4 hours, and 7 hours after administration. The blood was placed into commercially available tubes containing K2-EDTA. The blood samples were then centrifuged at 4°C and 4600 rpm for 5 minutes to obtain plasma samples. All plasma samples were rapidly frozen on dry ice and maintained at -70°C until LCMS/MS analysis was performed.
Sample preparation: 10 µL of plasma sample was aspirated and precipitated with a methanol solution containing 50 nmol/L of α-naphthoflavone (internal standard). The mixture was thoroughly mixed and centrifuged at 4°C and 14000 rpm for 5 minutes. Then, 75 µL of the supernatant was mixed with 75 µL of methanol for LCMS/MS analysis.

[3] = Intravenous Administration (5 mg/kg)
[4] = mouse, plasma, po, Gavage Administration (10 mg/kg)

Row | Compound | pEC50 (human FFAR1 (GPR40)) | Efficacy (%) (human FFAR1 (GPR40)) | Plasma Concentration (ng/mL) or Tissue Concentration (ng/g): Blood [1] [ng/mL] | Plasma Concentration (ng/mL) or Tissue Concentration (ng/g): Heart [1] [ng/g] | Plasma Concentration (ng/mL) or Tissue Concentration (ng/g): Liver [1] [ng/g] | Plasma Concentration (ng/mL) or Tissue Concentration (ng/g): Plasma [1] [ng/mL] | CL_obs [2, 3] [mL/min/kg] | Vss_obs [2, 3] [L/kg] | half-life ([2]; mouse, plasma, Intravenous Administration (5 mg/kg)) [h] | Cmax [2, 4] [ng/mL] | Tmax [2, 4] [h] | AUC(0-t) at 7 h ([2]; mouse, plasma, po, Gavage Administration (10 mg/kg), read-out: AUC0-7 h) [ng·h/mL] | bioavailability ([2]; mouse, plasma, po, gavage 10 mg/kg versus intravenous 5 mg/kg) [%]
1 | COc1ccc(F)c(N2CCC(c3oc4cc(C(CC(=O)O)C5CC5)ccc4c3-c3cccc(C(C)(C)C)c3)CC2)c1 (stereo not shown) [Compound 165] | 6.30 to 7.00 | ††† (Efficacy (%) > 150) | 842 | 418 | 1548 | 1290 |  |  |  |  |  |  | 
2 | COc1ccc(F)c(N2CCC(c3oc4cc(C(CC(=O)O)C5CC5)ccc4c3-c3ccc(C(C)(C)C)cc3)CC2)c1 (stereo not shown) [Compound 168] | 6.30 to 7.00 | ††† (Efficacy (%) > 150) | 936 | 485 | 1923 | 1550 | 2.1 | 0.494 | 3.9 | 3470 | 3 | 15400 | 24
